Tests used:
KB = experiment: Cytotoxicity against KB cell line; assay type: functional, cell-based; conditions: Homo sapiens
[1] = system: Trypanosoma brucei rhodesiense; experiment: Antitrypanosomal activity against Trypanosoma brucei rhodesiense STIB900; assay type: functional, organism-based
Leishmania donovani = experiment: Antiprotozoal activity against Leishmania donovani; assay type: functional, organism-based
[2] = Therapeutic index (cytotoxicity/antiprotozoal activity); assay type: cell-based; conditions: human, KB cells; read-out: Ratio IC50
[3] = Therapeutic index (cytotoxicity/antitrypanosomal activity); assay type: cell-based; conditions: human, KB cells; read-out: Ratio IC50
[4] = Therapeutic index, ratio of cytotoxicity/antiplasmodial activity; assay type: cell-based; conditions: human, KB cells; read-out: Ratio IC50
Plasmodium falciparum = experiment: Antiplasmodial activity against Plasmodium falciparum 3D7; assay type: functional, organism-based

SMILES | IC50 (KB) | IC50 [1] | IC50 (Leishmania donovani) | selectivity ratio [2] | selectivity ratio [3] | selectivity ratio [4] | IC50 (Plasmodium falciparum)
CC(C)(CN1CN(CCCCC(=O)O)CSC1=S)CN1CN(CCCCC(=O)O)CSC1=S | 8.16 µM | 2.48 µM | 7.27 µM | 1.1 | 3.4 | 0.9 | 9.04 µM
O=C(O)CC(C(=O)O)N1CSC(=S)N(CCCCCCN2CN(C(CC(=O)O)C(=O)O)CSC2=S)C1 (stereo unspecified) | 76.3 µM | 3.6 µM | 30.2 µM | – | – | 0.9 | 23.2 µM
COc1cc([C@@H]2c3cc4c(cc3[C@H](O)[C@H]3COC(=O)[C@H]23)OCO4)cc(OC)c1OC [PODOFILOX] | 0.0036 µM | – | – | – | – | – | –
CC(C)(CN1CN(CC(=O)O)CSC1=S)CN1CN(CC(=O)O)CSC1=S | 5.09 µM | 2.88 µM | 6.85 µM | 0.7 | 1.7 | 1.3 | 3.76 µM
O=C(O)C(Cc1ccccc1)N1CSC(=S)N(CCCCCCN2CN(C(Cc3ccccc3)C(=O)O)CSC2=S)C1 (stereo unspecified) | 5.73 µM | 0.73 µM | 5.42 µM | 1.1 | 7.9 | 0.6 | 9.13 µM
O=C(O)CN1CSC(=S)N(CCCCCCN2CN(CC(=O)O)CSC2=S)C1 | 8.33 µM | 0.73 µM | 7.07 µM | 1.2 | 11.4 | 0.8 | 11 µM
CSCCC(C(=O)O)N1CSC(=S)N(CCCCCCN2CN(C(CCSC)C(=O)O)CSC2=S)C1 (stereo unspecified) | 52.5 µM | 2.3 µM | 7.26 µM | 7.3 | 41.2 | 3.7 | 14.2 µM
NC(=O)CC(C(=O)O)N1CSC(=S)N(CCCCCCN2CN(C(CC(N)=O)C(=O)O)CSC2=S)C1 (stereo unspecified) | > 51.7 µM | 5.34 µM | 19.5 µM | > 30 | > 10 | > 2 | 39.5 µM
CC(C)(CN1CN(C(Cc2ccccc2)C(=O)O)CSC1=S)CN1CN(C(Cc2ccccc2)C(=O)O)CSC1=S (stereo unspecified) | 2.21 µM | 1.04 µM | 5.54 µM | 0.4 | 2.1 | 0.2 | 9.56 µM
O=C(O)CCN1CSC(=S)N(CCCCCCN2CN(CCC(=O)O)CSC2=S)C1 | 12.3 µM | 0.56 µM | 2.18 µM | 5.6 | 21.8 | 0.9 | 13.1 µM
NC(=O)CCC(C(=O)O)N1CSC(=S)N(CCCCCCN2CN(C(CCC(N)=O)C(=O)O)CSC2=S)C1 (stereo unspecified) | 52 µM | 9.37 µM | > 49 µM | – | 5.8 | 4.7 | 11 µM
O=C(O)CCCCN1CSC(=S)N(CCCCCCN2CN(CCCCC(=O)O)CSC2=S)C1 | 16.1 µM | 0.36 µM | 6.47 µM | 2.4 | 44.4 | 1 | 16.9 µM
N=C(N)c1ccc(OCCCCCOc2ccc(C(=N)N)cc2)cc1 [PENTAMIDINE] | – | 0.011 µM | – | – | – | – | –
O=C(O)CCCN1CSC(=S)N(CCCCCCN2CN(CCCC(=O)O)CSC2=S)C1 | 11.7 µM | 4.27 µM | 24.3 µM | – | – | 2 | 43.3 µM

Source: ChEMBL document CHEMBL1139001, “Alkyl-linked bis-THTT derivatives as potent in vitro trypanocidal agents” (Bioorg Med Chem Lett, 2006)
